Test results as given in US6040291A, “Antimicrobial peptide” (Seikagaku Corporation, priority 1998, dated 2000).

System: E. coli O157:H7
Experiment: Antimicrobial activity on E. coli O157:H7 (CFU count, IC50)
Type: cell-based
Details: Table 6
Experimental: Measurement method for antimicrobial activity: For the measurement of antimicrobial activity, E. coli [E. coli O157:H7 (collected from an E. coli O157 patients in Okayama prefecture, Kanagawa prefecture and Morioka city of Iwate Prefecture)], Klebsiella or Methicillin resistant Staphylococcus aureus; MRSA] was used.
These bacteria were grown in a liquid medium (Tryptosoy broth; manufactured by Eiken Kagaku). The bacteria cells in a logarithmic growth phase were collected, washed with PBS (pH 7.2), and adjusted to a final concentration of 5 ×10^3 to 1×10^4 cells/ml. To 450 μl of cell suspension, 50 μl of samples (peptide) in various concentrations were each added and mixtures were incubated at 37° C. for 1 hour. After the incubation, 100 μl of each reaction mixture was spread on an agarose medium (Nutrient agar; manufactured by Eiken Kagaku). This was incubated at 37° C. for 24 hours and the colony-forming unit (CFU) was counted to obtain 50% inhibition concentration (IC50).
Polymyxin B (known antimicrobial agent), A1, the peptide of the present invention (b), A3, the peptide of the present invention (d), A5 and A6 were used as samples and their antimicrobial activities on E. coli [E. coli O157:H7 (collected from E. coli O157 patients in Okayama prefecture, Kanagawa prefecture and Morioka city of Iwate Prefecture)] were examined by the above-described measurement method. […]

## Polymyxin B
Isolate Kanagawa
  Antimicrobial Activity on E. Coli O157:H7 (IC50): < 2.5 µg/mL
Isolate Okayama
  Antimicrobial Activity on E. Coli O157:H7 (IC50): 0.2 µg/mL
